Among the data in PubChem BioAssay AID248 (DTP/NCI, 2004) are T/C values, retold here.

Molecules are shown by their SMILES. “And” between values parts separate entries of the source, which are not always exact repeats. Identical values can stand only once. Toxic doses and inconclusive results are not listed.

The subject of the test is L1210 leukemia ip in BDF1 mice, survival T/C. Briefly: NCI In Vivo Anticancer Drug Screen. Data for tumor model L1210 Leukemia (intraperitoneal) in B6D2F1 (BDF1) mice. The note with it: endpoint: mean survival time, higher = longer survival. In a few lines:
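Tumor cells were implanted, animals were treated, and survival was followed. The result divides the treated measurement by the vehicle-control measurement.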

Setting [1] is: dose: 100.0 mg/kg/injection, schedule: Q01DX009 (ip), vehicle: Klucel (hydroxypropylcellulose) (HPC).
The mark [2] stands for this setting: dose: 200.0 mg/kg/injection, schedule: Q01DX009 (ip), vehicle: Klucel (hydroxypropylcellulose) (HPC).
Where [3] appears, read: dose: 400.0 mg/kg/injection, schedule: Q01DX009 (ip), vehicle: Klucel (hydroxypropylcellulose) (HPC).
The mark [4] stands for this setting: dose: 100.0 mg/kg/injection, schedule: Q04DX003 (ip), vehicle: saline with Tween-80.
Where [5] appears, read: dose: 200.0 mg/kg/injection, schedule: Q04DX003 (ip), vehicle: saline with Tween-80.
The mark [6] stands for this setting: dose: 400.0 mg/kg/injection, schedule: Q04DX003 (ip), vehicle: saline with Tween-80.

As to `CCCCCNc1ccc(C(=O)O)cc1`, the T/C is, setting by setting: (dose: 37.5 mg/kg/injection, schedule: Q01DX009 (ip), vehicle: saline) 100 % of control; (dose: 75.0 mg/kg/injection, schedule: Q01DX001 (ip), vehicle: acetone) 88 % of control; (dose: 75.0 mg/kg/injection, schedule: Q01DX009 (ip), vehicle: saline) 95 % of control; (dose: 75.0 mg/kg/injection, schedule: Q04DX003 (ip), vehicle: saline) 100 % of control; (dose: 150.0 mg/kg/injection, schedule: Q01DX001 (ip), vehicle: acetone) 96 % of control; (dose: 150.0 mg/kg/injection, schedule: Q01DX009 (ip), vehicle: saline) 92 % of control. Further, the T/C is, setting by setting: (dose: 150.0 mg/kg/injection, schedule: Q04DX003 (ip), vehicle: saline) 97 % of control; (dose: 300.0 mg/kg/injection, schedule: Q01DX001 (ip), vehicle: acetone) 102 % of control; (dose: 300.0 mg/kg/injection, schedule: Q04DX003 (ip), vehicle: saline) 97 % of control.

As for `Cc1ccc(Nc2cc(N)nc(N)n2)cc1`, the T/C (dose: 25.0 mg/kg/injection, schedule: Q01DX Z (ip), vehicle: methylcellulose (MC)) is 100 % of control.

For `CCC1(Sc2ncnc3nc[nH]c23)C(=O)NC(=O)NC1=O`, the T/C is 124 % of control (dose: 6.25 mg/kg/injection, schedule: Q01DX015 (ip), vehicle: alkali diluted with saline); 154 % of control (dose: 22.0 mg/kg/injection, schedule: Q01DX015 (ip), vehicle: saline); 157 % of control (dose: 33.0 mg/kg/injection, schedule: Q01DX015 (ip), vehicle: saline); 164 % of control (dose: 50.0 mg/kg/injection, schedule: Q01DX015 (ip), vehicle: saline); 183 % of control (dose: 75.0 mg/kg/injection, schedule: Q01DX015 (ip), vehicle: saline); 103 % of control (dose: 100.0 mg/kg/injection, schedule: Q01DX001 (ip), vehicle: alkali diluted with saline). Further, the T/C by setting is: (dose: 200.0 mg/kg/injection, schedule: Q01DX001 (ip), vehicle: alkali diluted with saline) 106 % of control; (dose: 200.0 mg/kg/injection, schedule: Q01DX015 (ip), vehicle: alkali diluted with saline) 166 % of control; (dose: 400.0 mg/kg/injection, schedule: Q01DX001 (ip), vehicle: alkali diluted with saline) 114 % of control; (dose: 400.0 mg/kg/injection, schedule: Q01DX015 (ip), vehicle: alkali diluted with saline) 109 % of control.

`O=C(Nc1ccccc1)OC1CC=CC1`: the T/C (dose: 100.0 mg/kg/injection, schedule: Q04DX003 (ip), vehicle: saline) was 90 % of control; the T/C (dose: 200.0 mg/kg/injection, schedule: Q04DX003 (ip), vehicle: saline) was 92 % of control; the T/C (dose: 400.0 mg/kg/injection, schedule: Q04DX003 (ip), vehicle: saline) was 103 % of control.

In the case of `CC1=CC(C)(C(Cl)(Cl)Cl)C(C)=C/C1=N/O` (stereo unspecified), the T/C was 99 % of control under setting [1] and 89 % of control under setting [2].

For the compound `Cc1ccc(NC(=O)Oc2ccc(Nc3ccccc3)cc2)cc1`, the T/C under setting [1] is 103 % of control; the T/C (dose: 100.0 mg/kg/injection, schedule: Q04DX002 (ip), vehicle: Klucel (hydroxypropylcellulose) (HPC)) was 98 % of control; the T/C under setting [2] was 95 % of control; the T/C (dose: 200.0 mg/kg/injection, schedule: Q04DX002 (ip), vehicle: Klucel (hydroxypropylcellulose) (HPC)) was 95 % of control; the T/C under setting [3] is 98 % of control; the T/C (dose: 400.0 mg/kg/injection, schedule: Q04DX002 (ip), vehicle: Klucel (hydroxypropylcellulose) (HPC)) is 91 % of control.

On to `NC(=O)OCCOC(N)=O`, for which the T/C reads like this: under setting [4], 97 % of control; under setting [5], 95 % of control; under setting [6], 95 % of control.

Regarding `Nc1nc(N)c2cc(CNc3ccc(C(=O)NC(CCCC(=O)O)C(=O)O)cc3)cnc2n1` (stereo unspecified), the T/C was 158 % of control and 175 % of control under setting [4]; 154 % of control under setting [5]; 87 % of control under setting [6].

As to `CO[C@H]1Nc2c(ccc(C)c2O)C(=O)N2C=C(/C=C/C(N)=O)C[C@@H]12`, the T/C was 104 % of control (dose: 0.05 mg/kg/injection, schedule: Q01DX015 (ip), vehicle: saline); 112 % of control (dose: 0.08 mg/kg/injection, schedule: Q04DX003 (ip), vehicle: saline with Tween-80); 112 % of control (dose: 0.1 mg/kg/injection, schedule: Q01DX015 (ip), vehicle: saline); 93 % of control (dose: 0.16 mg/kg/injection, schedule: Q04DX003 (ip), vehicle: saline with Tween-80); 112 % of control (dose: 0.2 mg/kg/injection, schedule: Q01DX015 (ip), vehicle: saline); 114 % of control (dose: 0.21 mg/kg/injection, schedule: Q01DX015 (ip), vehicle: saline). Further, the T/C is, setting by setting: (dose: 0.25 mg/kg/injection, schedule: Q01DX001 (ip), vehicle: saline) 117 % of control; (dose: 0.36 mg/kg/injection, schedule: Q01DX015 (ip), vehicle: saline) 118 % of control; (dose: 0.4 mg/kg/injection, schedule: Q01DX015 (ip), vehicle: saline) 110 % of control; (dose: 0.5 mg/kg/injection, schedule: Q01DX001 (ip), vehicle: saline) 117 % of control; (dose: 0.6 mg/kg/injection, schedule: Q01DX015 (ip), vehicle: saline) 115 % of control and 117 % of control; (dose: 1.0 mg/kg/injection, schedule: Q01DX015 (ip), vehicle: saline) 98 % of control. The T/C is 156 % of control (dose: 1.3 mg/kg/injection, schedule: Q01DX001 (ip), vehicle: saline); 121 % of control (dose: 25.0 micrograms/kg/injection, schedule: Q04DX003 (ip), vehicle: saline); 102 % of control (dose: 50.0 micrograms/kg/injection, schedule: Q04DX003 (ip), vehicle: saline); 114 % of control (dose: 100.0 micrograms/kg/injection, schedule: Q04DX003 (ip), vehicle: saline); 107 % of control (dose: 200.0 micrograms/kg/injection, schedule: Q04DX003 (ip), vehicle: saline).

For `Cc1ccc(-n2c(=O)c(N=Nc3ccc(Br)cc3)c(O)n(-c3ccccc3Cl)c2=S)cc1`, the T/C runs as follows: (dose: 37.5 mg/kg/injection, schedule: Q01DX001 (ip), vehicle: Klucel (hydroxypropylcellulose) (HPC)) 107 % of control; (dose: 75.0 mg/kg/injection, schedule: Q01DX001 (ip), vehicle: Klucel (hydroxypropylcellulose) (HPC)) 110 % of control; (dose: 150.0 mg/kg/injection, schedule: Q01DX001 (ip), vehicle: Klucel (hydroxypropylcellulose) (HPC)) 104 % of control.

`O=S(=O)(O)c1cc(Cl)c(O)c(Cl)c1`: the T/C under setting [1] was 95 % of control, the T/C under setting [2] is 102 % of control and the T/C under setting [3] was 106 % of control.

With `CCOC(=O)CC1NCCc2c1[nH]c1ccccc21` (stereo unspecified), the T/C runs as follows: (dose: 6.25 mg/kg/injection, schedule: Q01DX001 (ip), vehicle: saline sonified) 93 % of control; (dose: 12.5 mg/kg/injection, schedule: Q01DX001 (ip), vehicle: saline sonified) 98 % of control; (dose: 25.0 mg/kg/injection, schedule: Q01DX001 (ip), vehicle: saline sonified) 97 % of control.

Consider `[I][Sn]([c]1ccccc1)([c]1ccccc1)[c]1ccccc1`, for which the T/C is, setting by setting: (dose: 0.25 mg/kg/injection, schedule: Q01DX009 (ip), vehicle: Klucel (hydroxypropylcellulose) (HPC)) 93 % of control; (dose: 0.5 mg/kg/injection, schedule: Q01DX009 (ip), vehicle: Klucel (hydroxypropylcellulose) (HPC)) 101 % of control; (dose: 1.0 mg/kg/injection, schedule: Q01DX009 (ip), vehicle: Klucel (hydroxypropylcellulose) (HPC)) 97 % of control.

For the compound `CCCCCCCCCCCCCCCC(=O)NNC(C)C`, the T/C is, setting by setting: (dose: 25.0 mg/kg/injection, schedule: Q01DX009 (ip), vehicle: Klucel (hydroxypropylcellulose) (HPC)) 94 % of control; (dose: 25.0 mg/kg/injection, schedule: Q04DX003 (ip), vehicle: Klucel (hydroxypropylcellulose) (HPC)) 94 % of control; (dose: 50.0 mg/kg/injection, schedule: Q01DX009 (ip), vehicle: Klucel (hydroxypropylcellulose) (HPC)) 95 % of control; (dose: 50.0 mg/kg/injection, schedule: Q04DX003 (ip), vehicle: Klucel (hydroxypropylcellulose) (HPC)) 91 % of control; under setting [1], 86 % of control; (dose: 100.0 mg/kg/injection, schedule: Q04DX003 (ip), vehicle: Klucel (hydroxypropylcellulose) (HPC)) 105 % of control. Besides, the T/C under setting [2] was 91 % of control; the T/C (dose: 200.0 mg/kg/injection, schedule: Q04DX003 (ip), vehicle: Klucel (hydroxypropylcellulose) (HPC)) is 89 % of control; the T/C under setting [3] is 92 % of control; the T/C (dose: 400.0 mg/kg/injection, schedule: Q04DX003 (ip), vehicle: Klucel (hydroxypropylcellulose) (HPC)) is 89 % of control.
